Tests used:
[1] = system: H3K9me2; experiment: In situ staining intensity for H3K9me2 (heterochromatin) in old oocytes; type: cell-based, mouse; settings: aged oocytes cultured with SRT-1720, FIG. 8G
Procedure: Mouse oocytes collection for in situ immunofluorescence: After Euthanasia, ovaries were collected and dissected in M2 medium (M7167). Oocytes were collected from pool of 3 animals at least (numbers of each experiment are noted in legend). Prophase I arrested oocytes were collected under a binocular using a Stripper and washed in hyaluronidase (H4272-30 MG) to remove granulosa cells and acidic Tyrode's Solution (T1788) to remove the Zona Pellucida. The oocytes were fixed using PFA 4% (15710) for 20 min, and then quenched in PBS supplemented with 10 mM glycine and 1% BSA.
(§1) In situ immunofluorescence: Permeabilization was performed using 0.1% Triton X-100. Cells were cultured in PBS contains 5% BSA for blocking, and first and secondary antibodies were diluted in 0.1 Tween 20 (P9416)/PBS containing 5% BSA. The immune-stained cells were mounted in Vectashield (H-1000) mounting medium containing 80 nM of Hoechst (33342) and sealed on a slide using an Imaging spacer (GBL654002).
Imaging and quantification: Oocytes were imaged using the Ti-Eclipse Nikon system, with an Andor Zyla nsc05537 camera. […] Every cell was imaged at multiple planes. In order to analyze the images in a quantitatively, a projection of maximum intensity was created. To measure staining intensity, every assessed region was normalized to an equal-size region in the background (outside the area of interest). […]

[2] = system: old mouse oocytes; experiment: In vitro maturation of old mouse oocytes in medium supplemented with drug; type: cell-based; settings: for ability to induce maturation (first polar body extrusion and proper chromosome division): IVM media (a-MEM) with inhibitor, 24 hours, curcumin positive control, FIG. 9C-9D
Description: (§2) Mouse oocyte in vitro maturation: After Euthanasia, ovaries were collected and dissected in L-15 medium (011151A) and supplemented with 200 um IBMX (17018) to prevent meiotic progression. Prophase I arrested oocytes were identified by visualization of the typical germinal vesicle and collected under a binocular using a Stripper (MD-MXL3-STR-CGR). After collection, oocytes were transferred into a-MEM medium (22561021) supplemented with IBMX covered with Mineral oil (M8410-11) to prevent evaporation, for recovery time of 25 min at 37° in a 5% CO2 incubator, and then washed in IBMX free a-MEM medium to initiate meiosis. The oocytes were incubated in a-MEM under oil in the incubator for 6 hours for prophase I or incubated for 19 hours for metaphase II. To assess maturation rates, oocytes were incubated for 19 hours after release and then fixed and stained by Hoechst to examine the entry into the second meiotic division. See below amendments for drug treatments.
Drug treatments: Ovaries were collected and dissected in L-15 medium supplemented with 200 um IBMX to prevent meiotic progression as described above. Prophase I arrested oocytes were collected using a Stripper as described above. After collection, oocytes were transferred to a-MEM medium supplemented with IBMX +the desired drug covered with Mineral oil to prevent evaporation, for 4 hours at 37° in a 5% CO2 incubator (Since Chaetocin and IBMX have a cross reactivity with each other, the pause was not performed in Chaetocin experiments). After the pause, oocytes were washed in IBMX-free a-MEM that contains the drug to initiate meiosis. 19 hours after oocytes were released from IBMX, oocytes were fixed in PFA, permeabilized, and sealed as described above. Chaetocin is a hazarzous substance. For biosafety reasons, Chaetocin supplemented plates and matched controls were placed in a sealed chamber during incubation time.
It was next tested if similar results could be achieved without genetic manipulation. Old oocytes were treated with two different naturally occurring histone acetyltransferase (HAT) inhibitors: curcumin and garcinol. As a negative control, oocytes were given vehicle only. […] Next, a broader panel of naturally occurring HAT inhibitors were tested along with another reverse transcriptase (RT) inhibitor (FIG. 9C). As before, old oocytes were incubated in IVM media (a-MEM) supplemented with the inhibitors for 24 hours and maturation was measured. Oocytes with both first polar body extrusion and proper division of chromosomes (as evaluated by Hoechst staining) were considered as mature. Curcumin was used as a positive control.

[3] = Acidity of the molecule and effect on medium pH; type: physicochemical
Description: The pH of the medium used was around 7.3 with buffering capacity between 6.9 and 7.6. […] This acidity interfered with maturation and indeed in the case of the two strongly acidic molecules inhibited it. Medium with a greater buffering capacity or a different concentration of these acidic molecules will allow for HAT inhibition induced maturation improvement.

[4] = molecular target: PCAF (Homo sapiens, UniProt Q92831); settings: cited from earlier work
Chain of PCAF (Q92831 whole entry, species assumed): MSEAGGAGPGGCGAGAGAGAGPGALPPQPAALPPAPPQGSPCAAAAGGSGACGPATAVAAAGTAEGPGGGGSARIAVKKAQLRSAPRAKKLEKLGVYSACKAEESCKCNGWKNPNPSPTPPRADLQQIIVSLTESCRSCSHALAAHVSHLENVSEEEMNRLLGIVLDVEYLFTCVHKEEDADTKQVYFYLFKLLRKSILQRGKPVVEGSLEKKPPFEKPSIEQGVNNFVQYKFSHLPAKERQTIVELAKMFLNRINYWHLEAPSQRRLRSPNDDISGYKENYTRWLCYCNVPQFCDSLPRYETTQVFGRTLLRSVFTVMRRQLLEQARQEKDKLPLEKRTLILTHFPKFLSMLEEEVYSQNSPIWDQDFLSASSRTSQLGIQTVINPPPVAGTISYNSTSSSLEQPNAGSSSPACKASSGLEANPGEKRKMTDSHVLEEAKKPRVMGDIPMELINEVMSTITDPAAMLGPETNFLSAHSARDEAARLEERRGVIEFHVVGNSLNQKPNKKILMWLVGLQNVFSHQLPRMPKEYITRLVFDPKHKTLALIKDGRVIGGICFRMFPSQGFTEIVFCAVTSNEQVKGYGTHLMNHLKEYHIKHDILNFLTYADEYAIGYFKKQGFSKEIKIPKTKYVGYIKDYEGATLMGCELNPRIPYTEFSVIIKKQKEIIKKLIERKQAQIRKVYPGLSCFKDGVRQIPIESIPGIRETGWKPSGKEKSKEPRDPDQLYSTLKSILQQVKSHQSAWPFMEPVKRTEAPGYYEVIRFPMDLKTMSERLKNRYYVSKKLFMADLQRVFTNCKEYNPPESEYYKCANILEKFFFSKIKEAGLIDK

[5] = system: human oocytes; experiment: Human oocyte IVM with HAT or RT inhibitor supplementation; type: cell-based; settings: oocytes from young fertility preservation patients, Sage medium with LH and FSH, FIG. 11
Procedure: Human IVM protocol: Germinal vesicle (GV) oocytes were subjected to IVM in a Sage medium (A1-rad Medical) supplemented with 0.075 IU/mL luteinizing hormone (LH) and 0.075 IU/mL follicle stimulating hormone (FSH) overnight. HAT and/or RT inhibitors were added to the overnight culture in some experiments. All naked oocytes that were found were transferred for up to 48 hours of incubation in oocyte maturation medium (Sage In-Vitro Fertilization) supplemented with 0.075 IU/mL human menopausal gonadotropin (hMG) (Menopur, Ferring Pharmaceuticals). HAT and/or RT inhibitors were added to the 48-hour culture in some experiments. After 24 hours of incubation, the media was searched for mature oocytes that were immediately frozen. The media were then incubated for another 24 hours and searched again for other mature oocytes.
To also look at non-arrested human oocytes, we investigated the behavior of another cohort of human oocytes extracted from patients undergoing gonadotoxic treatment and therefore undergoing fertility preservation. In these cases, when hormonal induction and oocyte extraction are not possible due to the young age of the patient or social reasons, ovary surgical extraction is performed. After extraction, ovaries are dissected in medium in the IVF lab, and ovary tissue is cryopreserved. After remission, ovary tissue can be transplanted, and IVF performed. […]

[6] = system: H3K4me3; experiment: In situ staining for H3K4me3 in treated young oocytes; type: cell-based, mouse; settings: TSA 100 nm
Procedure: as §1
(§3) Imaging and quantification: Oocytes were imaged using the Ti-Eclipse Nikon system, with an Andor Zyla nsc05537 camera. […] Every cell was imaged at multiple planes. In order to analyze the images in a quantitatively, a projection of maximum intensity was created. To measure staining intensity, every assessed region was normalized to an equal-size region in the background (outside the area of interest). The intensity score was generated by dividing the intensity in the area of interest by that of the background.
(§4) Drug treatments: Ovaries were collected and dissected in L-15 medium supplemented with 200 um IBMX to prevent meiotic progression as described above. Prophase I arrested oocytes were collected using a Stripper as described above. […]

[7] = system: H3K27Ac; experiment: In situ staining for H3K27Ac in treated young oocytes; type: cell-based, mouse; settings: TSA 100 nm, 4 h arrest then 18 h until MII
Procedure: as §1, §3, §4

[8] = system: H3K9me2; experiment: H3K9me2 staining in treated young oocytes; type: cell-based, mouse; settings: TSA 100 nm, 4 h arrest then 18 h until MII
Procedure: Chromosome spread and immunofluorescence: Prophase I arrested oocytes were collected from ovaries as above and incubated for 6 hours to reach the first prophase or for 17 hours to reach second meiosis prophase as described above. Matured oocytes were washed in M2 medium and then in acidic Tyrode's Solution to remove the Zona Pellucida. 15 min before the desired time for chromosome spread, oocytes were kept in hypotonic solution, composed of FBS (F7524) diluted in DDW in 1:1 ratio. Oocytes were then spread in spreading solution (1% PFA buffered to 9.2 pH, supplemented with 0.15% Triton X-100and 0.03% […]) on Superfrost plus slides (32090003). To assess ploidy, prophase II spreads were stained with Hoechst to visualize chromatin and CREST to visualize the centromeres, and the imaged chromosome were manually counted.
In situ immunofluorescence: Permeabilization was performed using 0.1% Triton X-100. […]
Imaging and quantification: Oocytes were imaged using the Ti-Eclipse Nikon system, with an Andor Zyla nsc05537 camera. […] In order to analyze the images in a quantitatively, a projection of maximum intensity was created. To measure staining intensity, every assessed region was normalized to an equal-size region in the background (outside the area of interest). […]

[9] = system: Rad51; experiment: Rad51 nuclear localization (DNA damage response) in treated young oocytes; type: cell-based, mouse; settings: TSA 100 nm
Procedure: as §1, §3, §4

[10] = system: L1-encoded ORF1p; experiment: In situ immunofluorescence for L1-ORF1p in treated young oocytes; type: cell-based, mouse; settings: TSA 100 nm
Procedure: as §1, §3, §4

[11] = system: older oocytes; settings: aged animals, previously shown; cited from earlier work
[12] = system: young mouse oocytes; experiment: In vitro maturation of young mouse oocytes treated with epigenetic drugs; type: cell-based; settings: 2-month-old oocytes, Chaetocin 0.5 μM 18 h, FIG. 7A
Description: as §2, §4

With `O=C(Nc1ccccc1-c1cn2c(CN3CCNCC3)csc2n1)c1cnc2ccccc2n1` [SRT-1720] the “heterochromatin (H3K9me2 staining intensity)” value [1] was “heterochromatin elevation” and the “maturation ability of treated cells” value ([2]; aged oocytes cultured with SRT-1720, FIG. 8H) was “recovered maturation ability”.

In the case of `CC(C)=CCC[C@]1(C)C=Cc2c(O)c3c(c(CC=C(C)C)c2O1)O[C@]12C(=C[C@@H]4C[C@H]1C(C)(C)O[C@@]2(C/C=C(/C)C(=O)O)C4=O)C3=O` [gambogic acid], the acidity [3] is given as “highly acidic”, the PCAF inhibition [4] is given as “strongly inhibit” and the “ability to induce maturation (first polar body extrusion and proper chromosome division)” value (“ability to induce maturation” for short) ([2]; old oocytes) is given as “did not produce increased maturation”.

In the case of `COc1cc(/C=C/C(=O)CC(=O)/C=C/c2ccc(O)c(OC)c2)ccc1O` [Curcumin], the PCAF inhibition [4] is listed as “do not”, the “maturation rate at the highest dose” value ([2]; old oocytes, curcumin 10 um, FIG. 9A) is listed as “over 80%” and the “maturation rate versus vehicle” value ([2]; old oocytes, vehicle-only negative control, FIG. 9A-9B) is listed as “dose dependent increase”. For the same compound, the “maturation ability of human oocytes” value [5] was “did not impair their maturation ability and even increased it”.

In the case of `O=C(O[C@@H]1Cc2c(O)cc(O)cc2O[C@@H]1c1cc(O)c(O)c(O)c1)c1cc(O)c(O)c(O)c1` [EGCG, Epigallocatechin gallate], the acidity [3] is reported as “more weakly acidic” and the “ability to induce maturation” value ([2]; old oocytes) is reported as “did not produce increased maturation”.

For `CC(/C=C/C(=O)NO)=C\[C@@H](C)C(=O)c1ccc(N(C)C)cc1` [TSA, Trichostatin A], the “staining for H3K4me3” value [6] was “unchanged”, the “H3K27Ac in situ staining” value [7] was “increase” and the “H3K9me2 in situ staining” value [8] was “decrease”. For the same compound, the “DNA damage response (Rad51 nuclear localization)” value [9] was “elevated”, the L1-ORF1p localization [10] was “accumulates in nuclei” and the “L1-encoded ORF1p overall signal level” value [10] was “do not show a L1-encoded ORF1p elevation”.

For `CC1=CC(=O)c2c(O)cccc2C1=O` [Plumbagin], the PCAF inhibition [4] is given as “do not” and the “ability to induce maturation” value ([2]; old oocytes) is given as “comparable to curcumin”.

For `NC(=O)c1ccc[n+]([C@@H]2O[C@H](COP(=O)([O-])OP(=O)(O)OC[C@H]3O[C@@H](n4cnc5c(N)ncnc54)[C@H](O)[C@@H]3O)[C@@H](O)[C@H]2O)c1` [NAD+, nicotinamide adenine dinucleotide], the oocyte quality [11] is listed as “rejuvenated oocyte quality”.

For `CN1C(=O)[C@@]23C[C@]4([C@]56C[C@@]78SS[C@@](CO)(C(=O)N7[C@H]5Nc5ccccc56)N(C)C8=O)c5ccccc5N[C@@H]4N2C(=O)[C@]1(CO)SS3` [Chaetocin], the “reduction in oocytes that properly mature” value [12] was 18%.

In the case of `CCCCCCCCCCCCCCCc1cccc(O)c1C(=O)O` [anacardic acid], the acidity [3] is listed as “highly acidic”, the PCAF inhibition [4] is listed as “strongly inhibit” and the “ability to induce maturation” value ([2]; old oocytes) is listed as “did not produce increased maturation”.

From patent US20250075176A1, “COMPOSITIONS COMPRISING HISTONE […] INHIBITORS OR REVERSE TRANSCRIPTASE INHIBITORS AND USE THEREOF” (FOREVE LABS LTD., priority 2022, published 2025)
